The values that follow come from ChEMBL document CHEMBL3763090, “A pharmacological perspective on the use of Brazilian Red Propolis and its isolated compounds against human diseases” (Eur J Med Chem, 2016).

The data set is described as follows: Antioxidant activity assessed as inhibition of linoleic acid oxidation at 90 ug/ml measured over 60 mins by beta-carotene bleaching test. It counts as physicochemical. The note with it: 1 h.

Regarding `COc1ccc([C@@H]2COc3cc(O)ccc3C2)c(O)c1`, the “inhibition (INH)” value turned out to be 39.5%.
